In patent publication US20200246284A1 (Academia Sinica, priority 2015, published 2020):
Where two headings read alike, the source gives them in different places.

Key:
[1] = rat
[2] = in vitro; conditions: rat, microsomes
[3] = system: H889; experiment: Cytotoxicity SCLC 72 hr alamar blue; assay type: cell-based, human; conditions: Homo sapiens, NCI-H889, 72 h
[4] = system: MA-10-W51; experiment: Cytotoxicity leukemia; assay type: cell-based, human; conditions: growth factor dependent MA-10-W51
Source text: Human cord blood CD34+ cells transduced with MLL-AF9 gene: MA-10, MA-18. Human bone marrow CD34+ cells transduced with MLL-AF9 gene: MA-23. Human cord blood CD34+ cells transduced with MLL-AF9 and N-ras genes: MA-9.3, […] ).

[5] = system: BCI-NSI hTERT bronchial epithelium; experiment: Cytotoxicity normal tissue 72 hr; assay type: cell-based, human
[6] = system: HUVEC umbilical endothelium; experiment: Cytotoxicity normal tissue 72 hr; assay type: cell-based, human
[7] = system: CV1 renal fibroblasts; experiment: Cytotoxicity normal tissue 72 hr; assay type: cell-based, African green monkey (Cercopithecus aethiops); conditions: Chlorocebus sabaeus, Fibroblast
[8] = system: JEKO-1; experiment: Cytotoxicity mantle cell lymphoma
Method: (§1) After 72 hours, the cultures were pulsed with Alamar Blue overnight, and the fluorescent intensity of resulted cultures was measured by a Synergy H1 plate-reader (BioTek Inc).

[9] = system: nude mice bearing prostate 22Rv/HL2 tumor xenografts; conditions: mouse, in vivo
[10] = system: nude mice bearing prostate 22Rv/HL2; conditions: mouse, in vivo
[11] = system: nude mice bearing prostate 22Rv/HL2; conditions: mouse, in vivo; remark: listed apart in the source
[12] = system: Z-138; experiment: Combination with BO-1055, MCL (Tables 28, 29); assay type: cell-based, human
[13] = system: Granta; experiment: Combination with BO-1055, MCL (Tables 28, 29); assay type: cell-based, human
[14] = system: REC-1; experiment: Combination with BO-1055, MCL (Tables 28, 29); assay type: cell-based, human
[15] = system: Mino; experiment: Combination with BO-1055, MCL (Tables 28, 29); assay type: cell-based, human
[16] = system: NECB1; experiment: Combination with BO-1055, MCL (Tables 28, 29); assay type: cell-based, human
[17] = system: Ly10
Method: as §1

[18] = system: SUDHL-6
Method: as §1

[19] = system: Pfeiffer
Method: as §1

[20] = system: Toledo; conditions: human
Method: as §1

[21] = system: HBL1; conditions: human
Method: as §1

[22] = system: U2932; conditions: human
Method: as §1

[23] = system: Ly19; experiment: cells; conditions: Homo sapiens, read-out: cytotoxicity IC50
[24] = system: Farage; experiment: cells; conditions: Homo sapiens, read-out: cytotoxicity IC50
[25] = biological target: hERG (Homo sapiens, UniProt Q12809); experiment: in vitro
hERG, sequence (Q12809 whole entry): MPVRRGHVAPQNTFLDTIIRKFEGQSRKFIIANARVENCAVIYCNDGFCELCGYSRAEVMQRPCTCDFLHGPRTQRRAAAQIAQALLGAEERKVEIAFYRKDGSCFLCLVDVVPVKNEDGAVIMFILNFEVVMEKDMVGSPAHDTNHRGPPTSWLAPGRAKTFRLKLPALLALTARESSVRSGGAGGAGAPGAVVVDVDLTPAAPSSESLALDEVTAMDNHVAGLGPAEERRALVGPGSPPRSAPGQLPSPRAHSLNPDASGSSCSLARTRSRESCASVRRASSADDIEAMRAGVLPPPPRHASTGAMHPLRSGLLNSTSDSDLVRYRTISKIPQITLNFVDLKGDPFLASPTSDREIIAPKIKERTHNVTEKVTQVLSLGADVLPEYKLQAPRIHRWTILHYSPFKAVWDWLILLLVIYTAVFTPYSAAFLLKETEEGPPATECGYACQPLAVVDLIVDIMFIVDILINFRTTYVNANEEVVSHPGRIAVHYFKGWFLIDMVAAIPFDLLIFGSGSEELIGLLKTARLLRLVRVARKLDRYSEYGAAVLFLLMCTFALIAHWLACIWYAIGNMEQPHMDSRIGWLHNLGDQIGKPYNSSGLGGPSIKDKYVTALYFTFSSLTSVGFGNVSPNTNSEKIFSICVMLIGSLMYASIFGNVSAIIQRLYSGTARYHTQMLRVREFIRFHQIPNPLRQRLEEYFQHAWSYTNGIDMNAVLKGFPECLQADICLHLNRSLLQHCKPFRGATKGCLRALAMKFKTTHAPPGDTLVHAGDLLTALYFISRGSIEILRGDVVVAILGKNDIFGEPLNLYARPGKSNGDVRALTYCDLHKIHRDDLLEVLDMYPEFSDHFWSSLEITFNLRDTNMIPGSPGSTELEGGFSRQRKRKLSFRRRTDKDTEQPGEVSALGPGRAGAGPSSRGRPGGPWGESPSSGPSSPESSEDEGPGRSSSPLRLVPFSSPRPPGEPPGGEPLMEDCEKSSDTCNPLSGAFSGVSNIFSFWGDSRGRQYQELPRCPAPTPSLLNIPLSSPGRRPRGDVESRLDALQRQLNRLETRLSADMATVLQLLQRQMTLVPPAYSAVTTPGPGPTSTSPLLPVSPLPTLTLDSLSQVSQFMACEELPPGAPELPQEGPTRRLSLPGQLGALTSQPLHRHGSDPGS

[26] = system: Ly18; experiment: Cytotoxicity DLBCL; conditions: read-out: cytotoxicity IC50; LY18, DLBCL GCB
Method: as §1

[27] = system: A204 rhabdomyosarcoma; experiment: Cytotoxicity sarcoma; conditions: read-out: cytotoxic activity (IC50), A204 (rhabdoid?)
Method: as §1

[28] = system: SUDHL-5; experiment: Cytotoxicity DLBCL; conditions: read-out: cytotoxicity IC50; SUDHL-5, DLBCL GCB
[29] = system: Z-138; experiment: Cytotoxicity mantle cell lymphoma; conditions: read-out: cytotoxicity IC50, Z-138, mantle cell lymphoma
Method: as §1

[30] = system: NECB-1; experiment: Cytotoxicity mantle cell lymphoma
Method: as §1

[31] = system: FBMC fetal BM stroma; experiment: Cytotoxicity normal tissue 72 hr; assay type: cell-based; conditions: Homo sapiens
[32] = system: JEKO-1; conditions: human
Method: as §1

[33] = system: Mino
Method: as §1

[34] = system: Granta-519
Method: as §1

[35] = system: Mino; experiment: Cytotoxicity mantle cell lymphoma; conditions: human, Mino mantle cell lymphoma cells, 72 h
Method: as §1

[36] = system: Granta-519; experiment: Cytotoxicity mantle cell lymphoma; conditions: human, Granta-519 mantle cell lymphoma cells, 72 h
Method: as §1

[37] = system: FTE-hTERT Fallopian epithelium; experiment: Cytotoxicity normal tissue 72 hr; assay type: cell-based, human
[38] = system: BMMSC BM mesenchyme; experiment: Cytotoxicity normal tissue 72 hr; assay type: cell-based, human
[39] = system: Ly8
Method: as §1

[40] = system: SUDHL-4
Method: as §1

[41] = system: MS-5 adult BM stroma; experiment: Cytotoxicity normal tissue 72 hr; assay type: cell-based, mouse; conditions: MS-5 (mouse), 72 hr; listed as TMZ; read-out: IC50
[42] = system: normal human, murine or primate cell and tissue types; experiment: Cytotoxicity, panel of normal tissues (MTT, alamar blue); assay type: cell-based; conditions: 5 highly drug resistant normal tissues
[43] = system: Rhabdomyosarcoma cell lines; experiment: Cytotoxicity, sarcoma panel (Table 30); assay type: cell-based; conditions: Homo sapiens, 5/6 rhabdomyosarcoma lines
[44] = system: primary patient Ewing's sarcoma xenograft in NSG mice; experiment: Cyclophosphamide-resistant primary Ewing's sarcoma xenograft; assay type: in vivo, mouse; conditions: cyclophosphamide 70 mg/kg i.p. x3, then BO-1055 30 mg/kg iv x4
[45] = system: LY1; conditions: human
Method: as §1

[46] = system: Ly3 (OCI-LY3); conditions: human
Method: as §1

[47] = system: spontaneous murine B-cell lymphoma; conditions: mouse
[48] = read-out: cytotoxicity IC50, NECB-1, mantle cell lymphoma

CCOc1ccc2ccc(=O)oc2c1 [7-EC, 7-Ethoxycoumarin]
MR (metabolic rate) [1]: 0.0448 nmol/min/mg | % Remaining at 60 min ([1]; microsomes, 1 h): 18% | Microsome stability, standards ([1]; microsomes, 1 h): High standard = 95% | Microsome stability, turnover ([1]; microsomes, 1 h): 7-EC ≥ 82%) | half-life [2]: 23.5 min

O=NN(CCCl)C(=O)NCCCl [BCNU, BCNU/Carmustine]
IC50 [3]: > 45 µM

CCc1c(CO)c(CO)c2n1Cc1c(c3ccccc3n1C)C2 [BO-1978]
cytotoxicity, dose titration (FIG. 9) [4]: highly cytotoxic, with BO-1978 more so than BO-1055

Cn1c(CCCC(=O)O)nc2cc(N(CCCl)CCCl)ccc21 [Bendamustine]
IC50 [5]: 150 µM | IC50 [6]: 150 µM | IC50 ([7]; 72 h): > 100 µM | IC50 [8]: 6.25 µM

CC(=O)O[C@@]12CO[C@@H]1C[C@H](O)[C@@]1(C)C(=O)[C@H](O)C3=C(C)[C@@H](OC(=O)[C@H](O)[C@@H](NC(=O)OC(C)(C)C)c4ccccc4)C[C@@](O)([C@@H](OC(=O)c4ccccc4)[C@H]21)C3(C)C [Docetaxel]
pathological change in heart, liver, spleen, lung and kidney [9]: no apparent pathological change | ALT [10]: 54.08 U/L | AST [10]: 108.60 U/L | BUN [10]: 21.93 mg/dL | CREA [10]: 0.32 mg/dL | UA [10]: 3.60 mg/dL | BASO [11]: 0.08 10^3/μL | EOS [11]: 0.12 10^3/μL | LYM [11]: 0.66 10^3/μL | MONO [11]: 0.04 10^3/μL | NEU [11]: 1.34 10^3/μL | PLT [11]: 308 10^3/μL | RBC [11]: 7.55 10^6/μL | WBC [11]: 2.49 10^3/μL

COc1cccc2c1C(=O)c1c(O)c3c(c(O)c1C2=O)C[C@@](O)(C(=O)CO)C[C@@H]3O[C@H]1C[C@H](N)[C@H](O)[C@H](C)O1 [Doxorubicin]
interaction with BO-1055 [12]: both combinations were synergistic | interaction with BO-1055 [13]: synergistic with combo-1 and antagonistic against combo-2 | interaction with BO-1055 [14]: both combinations were antagonistic | interaction with BO-1055 [15]: both combinations were synergistic | interaction with BO-1055 [16]: synergistic with combo-1 and antagonistic against combo-2 | IC50 ([17]; human): 0.084 µM | IC50 ([18]; human): 0.195 µM | IC50 ([19]; human): 0.061 µM | IC50 [20]: > 10 µM | IC50 [21]: 0.211 µM | IC50 [22]: 0.05 µM | IC50 [23]: 0.121 µM | IC50 [24]: 0.273 µM | IC50 [25]: 0.03 ± 0.03 µM | IC50 [26]: 0.097 µM | IC50 [27]: 0.011 µM | IC50 [28]: 0.912 µM | IC50 [8]: 0.05 µM | IC50 [29]: 0.033 µM | IC50 ([29]; listed as Doxo): 0.34 µM | IC50 [30, 48]: 0.163 µM | IC50 ([30]; read-out: cytotoxicity IC50, NECB-1, mantle cell lymphoma, listed as Doxo): 1.23 µM

COc1cc([C@@H]2c3cc4c(cc3[C@@H](O[C@@H]3O[C@@H]5CO[C@@H](C)O[C@H]5[C@H](O)[C@H]3O)[C@H]3COC(=O)[C@H]23)OCO4)cc(OC)c1O [Etoposide]
IC50 [8]: 0.78 µM

N[C@@H](Cc1ccc(N(CCCl)CCCl)cc1)C(=O)O [Melphalan]
IC50 [31]: > 10 µM | IC50 [8]: 1.1 µM

CC(=O)O[C@H]1C(=O)[C@@]2(C)[C@H]([C@H](OC(=O)c3ccccc3)[C@]3(O)C[C@H](OC(=O)[C@H](O)[C@@H](NC(=O)c4ccccc4)c4ccccc4)C(C)=C1C3(C)C)[C@]1(OC(C)=O)CO[C@@H]1C[C@@H]2O [Paclitaxel]
IC50 [32]: 0.017 µM | IC50 ([33]; human): 0.025 µM | IC50 ([34]; human): 0.049 µM | IC50 [29]: 0.012 µM | IC50 [30, 48]: 0.064 µM

Cc1[nH]c2ccccc2c1CCNCc1ccc(/C=C/C(=O)NO)cc1 [Panobinostat]
IC50 ([8]; human, JEKO-1 mantle cell lymphoma cells, 72 h): 0.21 µM | IC50 [35]: 0.291 µM | IC50 [36]: 0.041 µM | IC50 ([30]; human, NECB-1 mantle cell lymphoma cells, 72 h): 0.02 µM

CCc1c2c(nc3ccc(O)cc13)-c1cc3c(c(=O)n1C2)COC(=O)[C@]3(O)CC [SN-38]
IC50 ([5]; read-out: IC50): 500 µM | IC50 [37]: 2000 µM | IC50 ([6]; read-out: IC50): 400 µM | IC50 [38]: 200 µM | IC50 [8]: 0.8 µM

CNC(=O)c1cc(Oc2ccc(NC(=O)Nc3ccc(Cl)c(C(F)(F)F)c3)cc2)ccn1 [SOR]
IC50 [33]: ≥ 8 µM | IC50 [34]: ≥ 8 µM | IC50 [39]: ≥ 8 µM | IC50 [17]: ≥ 8 µM | IC50 [40]: 5.62 µM | IC50 [18]: ≥ 8 µM | IC50 [19]: 4.57 µM

Cn1nnc2c(C(N)=O)ncn2c1=O [Temozolomide]
IC50 [41]: 5.59 µM | IC50 ([7]; CV1 primate, 72 hr, read-out: IC50): > 100 µM | IC50 [42]: ≥ 20 µM | IC50 [43]: ≥ 191 µM | IC50 [27]: 569 µM

CC[C@]1(O)C[C@H]2CN(CCc3c([nH]c4ccccc34)[C@@](C(=O)OC)(c3cc4c(cc3OC)N(C=O)[C@H]3[C@@](O)(C(=O)OC)[C@H](OC(C)=O)[C@]5(CC)C=CCN6CC[C@]43[C@@H]65)C2)C1 [Vincristine]
IC50 ([8]; JEKO-1, 72 hr (Table 27)): 0.39 µM

O=P1(N(CCCl)CCCl)NCCCO1 (centres unmarked) [cyclophosphamide]
tumor growth [44]: Tumor growth was not inhibited

CC(C)C[C@H](NC(=O)[C@H](Cc1ccccc1)NC(=O)c1cnccn1)B(O)O [velcade, Bortezomib]
interaction with BO-1055 [12]: synergistic cytotoxic with both combinations | interaction with BO-1055 [13]: synergistic with combo-1 and antagonistic with combo-2 | interaction with BO-1055 [14]: antagonistic in both combinations | interaction with BO-1055 [15]: synergistic cytotoxic with both combinations | interaction with BO-1055 [16]: synergistic with combo-1 and antagonistic with combo-2 | IC50 ([33]; human): 0.042 µM | IC50 ([34]; human): 0.008 µM | IC50 [45]: 0.005 µM | IC50 [46]: 0.021 µM | IC50 ([39]; human): 0.078 µM | IC50 ([40]; human): 0.003 µM | IC50 ([18]; human): 0.001 µM | IC50 ([19]; human): 0.004 µM | IC50 [20]: 0.108 µM | IC50 [21]: 0.004 µM | IC50 [22]: 0.005 µM | IC50 [47]: 0.006 µM | IC50 [26]: 0.01 µM | IC50 [28]: 0.018 µM | IC50 [30, 48]: 0.143 µM
